# Results published in PubChem BioAssay (NCI).
# Several values for one entry are separate records, joined by “and”; a condition that tells them apart may be missing. Equal entries are not always repeated.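 Values below derive from 48-hour exposures of cells grown in 96-well plates, with endpoints linearly interpolated between the two concentrations bracketing the appropriate inhibition level. GI50: concentration for 50% inhibition of growth. TGI: total growth inhibition.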
# Legend:
# Test in all cases: NCI tumour cell line growth inhibition, 48 h
# [1] = system: 786-0 renal
# [2] = system: A498 renal
# [3] = system: A549 NSCLC
# [4] = system: ACHN renal
# [5] = system: BT-549 breast
# [6] = system: CAKI-1 renal
# [7] = system: COLO 205 colon
# [8] = system: DLD-1 colon
# [9] = system: DMS 114 small cell lung
# [10] = system: DMS 273 small cell lung
# [11] = system: DU-145 prostate
# [12] = system: EKVX NSCLC
# [13] = system: HCC-2998 colon
# [14] = system: HCT-116 colon
# [15] = system: HCT-15 colon
# [16] = system: HL-60(TB) leukemia
# [17] = system: HOP-18 NSCLC
# [18] = system: HOP-92 NSCLC
# [19] = system: HS 578T breast
# [20] = system: HT29 colon
# [21] = system: IGROV1 ovarian
# [22] = system: K-562 leukemia
# [23] = system: KM12 colon
# [24] = system: KM20L2 colon
# [25] = system: LOX IMVI melanoma
# [26] = system: M14 melanoma
# [27] = system: M19-MEL melanoma
# [28] = system: MALME-3M melanoma
# [29] = system: MCF7 breast
# [30] = system: MDA-MB-231 breast
# [31] = system: MDA-MB-435
# [32] = system: MDA-N
# [33] = system: NCI-H226 lung
# [34] = system: NCI-H23 lung
# [35] = system: NCI-H460 lung
# [36] = system: NCI-H522 lung
# [37] = system: NCI/ADR-RES ovarian
# [38] = system: OVCAR-3 ovarian
# [39] = system: OVCAR-4 ovarian
# [40] = system: OVCAR-5 ovarian
# [41] = system: OVCAR-8 ovarian
# [42] = system: P388 leukemia
# [43] = system: P388/ADR leukemia
# [44] = system: PC-3 prostate
# [45] = system: RPMI-8226 leukemia
# [46] = system: RXF 393 renal
# [47] = system: SF-268 CNS
# [48] = system: SF-295 CNS
# [49] = system: SF-539 CNS
# [50] = system: SK-MEL-28 melanoma
# [51] = system: SK-MEL-5 melanoma
# [52] = system: SK-OV-3 ovarian
# [53] = system: SN12C renal
# [54] = system: SN12K1 renal
# [55] = system: SNB-19 CNS
# [56] = system: SNB-75 CNS
# [57] = system: SNB-78 CNS
# [58] = system: SR leukemia
# [59] = system: T-47D breast
# [60] = system: TK-10 renal
# [61] = system: U251 CNS
# [62] = system: UACC-257 melanoma
# [63] = system: UACC-62 melanoma
# [64] = system: UO-31 renal
# [65] = system: CCRF-CEM leukemia
# [66] = system: HOP-62 NSCLC
# [67] = system: LXFL 529 NSCLC
# [68] = system: MOLT-4 leukemia
# [69] = system: RXF-631 renal
# [70] = system: SK-MEL-2 melanoma
# [71] = system: SW-620 colon
# [72] = system: XF 498 CNS
smiles,measurement,setting,value
CNCCN=c1ccc2c3c1c(O)c1c(O)ccc(=O)c1c3[nH]n2CCNCCO,GI50,[1],0.05 µM
same,TGI,[1],1.79 µM and 0.677 µM
same,GI50,[2],0.102 µM and 0.405 µM
same,TGI,[2],1.14 µM and 5.15 µM
same,GI50,[3],0.027 µM
same,TGI,[3],4.65 µM and 4.57 µM
same,GI50,[4],0.0844 µM and 0.0775 µM
same,TGI,[4],0.708 µM and 0.259 µM
same,TGI,[5],2.43 µM
same,GI50,[6],0.054 µM
same,TGI,[6],0.992 µM and 2.28 µM
same,GI50,[7],0.398 µM and 0.56 µM
same,TGI,[7],4.41 µM and 4.59 µM
same,TGI,[8],11.6 µM and 11.9 µM and 19.6 µM
same,TGI,[9],2.91 µM and 0.834 µM
same,GI50,[10],0.053 µM and 0.0978 µM
same,TGI,[10],1.59 µM and 0.336 µM
same,TGI,[11],1.27 µM and 0.942 µM
same,GI50,[12],1.84 µM and 0.889 µM
same,TGI,[12],10.5 µM and 3.5 µM
same,TGI,[13],1.61 µM and 8.62 µM
same,GI50,[14],0.207 µM
same,TGI,[14],4.9 µM and 5.37 µM
same,GI50,[15],1.52 µM
same,TGI,[15],24.8 µM and 41.2 µM
same,GI50,[16],0.0496 µM and 0.314 µM
same,TGI,[16],0.663 µM and 1.22 µM
same,TGI,[17],2.18 µM and 7.73 µM and 6.04 µM
same,GI50,[18],0.199 µM
same,TGI,[18],2.64 µM and 1.37 µM
same,TGI,[19],1.41 µM
same,GI50,[20],0.587 µM
same,TGI,[20],3.71 µM and 9.04 µM
same,GI50,[21],1.25 µM
same,TGI,[21],11.2 µM and 12.9 µM
same,GI50,[22],0.224 µM and 0.296 µM
same,TGI,[22],3.66 µM and 10.9 µM
same,GI50,[23],0.918 µM
same,TGI,[23],4.23 µM and 15.1 µM
same,TGI,[24],6.7 µM and 12.2 µM and 1.51 µM
same,GI50,[25],0.0949 µM and 0.395 µM
same,GI50,[26],0.397 µM and 1.19 µM
same,TGI,[26],3.41 µM and 10.4 µM
same,GI50,[27],0.147 µM and 0.179 µM
same,TGI,[27],2.72 µM and 1.13 µM
same,GI50,[28],0.696 µM and 0.511 µM
same,GI50,[29],0.0568 µM and 0.05 µM
same,TGI,[29],7.51 µM and 5.2 µM
same,GI50,[30],0.97 µM and 0.504 µM
same,TGI,[30],5.45 µM and 9.63 µM
same,TGI,[31],3.32 µM
same,TGI,[32],2.7 µM
same,GI50,[33],0.000924 µM
same,TGI,[33],0.336 µM
same,TGI,[34],2.75 µM
same,GI50,[35],0.000851 µM
same,TGI,[35],1.21 µM
same,GI50,[36],0.194 µM and 0.627 µM
same,TGI,[37],46.9 µM and 404 µM and 239 µM
same,GI50,[38],1.16 µM
same,TGI,[38],3.99 µM and 5.12 µM
same,GI50,[39],0.861 µM and 0.923 µM
same,TGI,[39],3.26 µM and 5.54 µM
same,GI50,[40],0.9 µM
same,TGI,[40],3.36 µM and 11.5 µM
same,GI50,[41],0.174 µM and 0.366 µM
same,TGI,[41],6.05 µM and 5.42 µM
same,GI50,[42],< 0.0172 µM and 0.0845 µM
same,TGI,[42],0.0448 µM and 0.246 µM
same,GI50,[43],0.751 µM
same,TGI,[43],16.3 µM and 32.9 µM
same,GI50,[44],0.41 µM
same,TGI,[44],6.66 µM and 4.9 µM
same,GI50,[45],0.129 µM and 0.294 µM
same,TGI,[45],5.04 µM and 12.4 µM
same,GI50,[46],0.744 µM and 0.173 µM
same,TGI,[46],2.54 µM and 1.25 µM
same,TGI,[47],2.57 µM
same,GI50,[48],0.0369 µM
same,TGI,[48],0.794 µM and 0.811 µM
same,GI50,[49],0.0576 µM
same,TGI,[49],1.32 µM
same,GI50,[50],1.5 µM
same,TGI,[50],6.87 µM
same,GI50,[51],0.0847 µM and 0.139 µM
same,TGI,[51],0.962 µM and 2.06 µM
same,GI50,[52],0.137 µM and 0.162 µM
same,TGI,[52],3.25 µM and 5.72 µM
same,GI50,[53],0.0859 µM
same,TGI,[53],2.41 µM and 2.39 µM
same,GI50,[54],0.05 µM
same,TGI,[54],2.54 µM and 0.598 µM
same,GI50,[55],0.0308 µM and 0.11 µM
same,GI50,[56],0.0294 µM and 0.0772 µM
same,TGI,[56],0.387 µM and 0.149 µM
same,TGI,[57],10.5 µM
same,TGI,[58],3.25 µM
same,TGI,[59],5.35 µM
same,GI50,[60],1.14 µM and 5.32 µM
same,TGI,[60],7.54 µM and 18.6 µM
same,TGI,[61],0.287 µM
same,TGI,[62],7 µM
same,GI50,[63],0.0741 µM
same,TGI,[63],3.07 µM
same,GI50,[64],0.918 µM and 3.47 µM
same,TGI,[64],13 µM and 62.2 µM
C/C=N\N1C(=O)c2ccccc2C1=O,TGI,[1],> 100 µM
same,TGI,[2],> 100 µM
same,TGI,[3],> 100 µM
same,TGI,[4],> 100 µM
same,TGI,[6],> 100 µM
same,TGI,[65],> 100 µM
same,TGI,[8],> 100 µM
same,TGI,[9],> 100 µM
same,TGI,[10],> 100 µM
same,TGI,[12],> 100 µM
same,TGI,[13],> 100 µM
same,TGI,[14],> 100 µM
same,TGI,[15],> 100 µM
same,TGI,[16],> 100 µM
same,TGI,[17],> 100 µM
same,TGI,[66],> 100 µM
same,TGI,[18],> 100 µM
same,TGI,[20],> 100 µM
same,TGI,[21],> 100 µM
same,TGI,[22],> 100 µM
same,TGI,[23],> 100 µM
same,TGI,[24],> 100 µM
same,TGI,[25],> 100 µM
same,TGI,[67],> 100 µM
same,TGI,[26],> 100 µM
same,TGI,[27],> 100 µM
same,TGI,[28],> 100 µM
same,TGI,[68],> 100 µM
same,TGI,[33],> 100 µM
same,TGI,[34],> 100 µM
same,TGI,[35],> 100 µM
same,TGI,[38],> 100 µM
same,TGI,[39],> 100 µM
same,TGI,[40],> 100 µM
same,TGI,[41],> 100 µM
same,TGI,[45],> 100 µM
same,TGI,[46],> 100 µM
same,TGI,[69],> 100 µM
same,TGI,[47],> 100 µM
same,TGI,[48],> 100 µM
same,TGI,[49],> 100 µM
same,TGI,[70],> 100 µM
same,TGI,[50],> 100 µM
same,TGI,[51],> 100 µM
same,TGI,[53],> 100 µM
same,TGI,[55],> 100 µM
same,TGI,[56],> 100 µM
same,TGI,[57],> 100 µM
same,TGI,[58],> 100 µM
same,TGI,[71],> 100 µM
same,TGI,[60],> 100 µM
same,TGI,[62],> 100 µM
same,TGI,[63],> 100 µM
same,TGI,[64],> 100 µM
same,TGI,[72],> 100 µM
CC1(C)CC(N(C(=O)/C=C/c2ccc([N+](=O)[O-])o2)C2CCCCC2)CC(C)(C)N1,TGI,[1],19.4 µM
same,TGI,[2],30.6 µM
same,TGI,[3],29.7 µM
same,TGI,[4],25.4 µM
same,TGI,[6],17.2 µM
same,TGI,[65],13.3 µM
same,TGI,[8],3.38 µM
same,TGI,[9],6.87 µM
same,TGI,[10],18 µM
same,TGI,[12],27 µM
same,TGI,[13],23.6 µM
same,TGI,[14],12 µM
same,TGI,[15],20.2 µM
same,TGI,[16],6.4 µM
same,TGI,[17],37.4 µM
same,TGI,[66],34.5 µM
same,TGI,[18],14.8 µM
same,TGI,[20],15.4 µM
same,TGI,[21],29.1 µM
same,TGI,[23],22.5 µM
same,TGI,[24],18.8 µM
same,TGI,[25],25.4 µM
same,TGI,[67],17.8 µM
same,TGI,[26],9.54 µM
same,TGI,[27],16.9 µM
same,TGI,[68],18.2 µM
same,TGI,[34],21.3 µM
same,TGI,[35],13.9 µM
same,TGI,[36],21.2 µM
same,TGI,[38],25.2 µM
same,TGI,[39],22.2 µM
same,TGI,[40],38.4 µM
same,TGI,[41],17.8 µM
same,TGI,[45],12.9 µM
same,TGI,[69],23.4 µM
same,TGI,[47],20.5 µM
same,TGI,[48],26.4 µM
same,TGI,[49],21.8 µM
same,TGI,[50],25.1 µM
same,TGI,[51],21.8 µM
same,TGI,[52],43.6 µM
same,TGI,[53],18.9 µM
same,TGI,[55],26.3 µM
same,TGI,[56],22.3 µM
same,TGI,[57],26.5 µM
same,TGI,[58],21.2 µM
same,TGI,[71],6.01 µM
same,TGI,[60],35.8 µM
same,TGI,[61],18.1 µM
same,TGI,[62],23.1 µM
same,TGI,[63],21.6 µM
same,TGI,[64],24.5 µM
same,TGI,[72],23.5 µM
